Assay results taken from patent US11306079B2, “3-(5-amino-pyrazin-2-yl)-benzenesulfonamide derivatives and related compounds as PI3K-gamma kinase inhibitors” (Incyte Corporation, priority 2017, dated 2022).
pIC50: −log10 of the molar value. Where a name gives a salt, the structure may show the parent alone.

Legend:
[1] = target: PI3Kδ (p110δ/p85α) Recombinant Human Protein (Homo sapiens (Human), UniProt O00329); assay: PI3Kδ Scintillation Proximity Assay; type: biochemical; conditions: 20 μM PIP2, 2 μM ATP, 3.4 nM PI3Kδ, 120 min, room temperature
Chain of PI3Kδ (p110δ/p85α) Recombinant Human Protein (O00329 whole entry): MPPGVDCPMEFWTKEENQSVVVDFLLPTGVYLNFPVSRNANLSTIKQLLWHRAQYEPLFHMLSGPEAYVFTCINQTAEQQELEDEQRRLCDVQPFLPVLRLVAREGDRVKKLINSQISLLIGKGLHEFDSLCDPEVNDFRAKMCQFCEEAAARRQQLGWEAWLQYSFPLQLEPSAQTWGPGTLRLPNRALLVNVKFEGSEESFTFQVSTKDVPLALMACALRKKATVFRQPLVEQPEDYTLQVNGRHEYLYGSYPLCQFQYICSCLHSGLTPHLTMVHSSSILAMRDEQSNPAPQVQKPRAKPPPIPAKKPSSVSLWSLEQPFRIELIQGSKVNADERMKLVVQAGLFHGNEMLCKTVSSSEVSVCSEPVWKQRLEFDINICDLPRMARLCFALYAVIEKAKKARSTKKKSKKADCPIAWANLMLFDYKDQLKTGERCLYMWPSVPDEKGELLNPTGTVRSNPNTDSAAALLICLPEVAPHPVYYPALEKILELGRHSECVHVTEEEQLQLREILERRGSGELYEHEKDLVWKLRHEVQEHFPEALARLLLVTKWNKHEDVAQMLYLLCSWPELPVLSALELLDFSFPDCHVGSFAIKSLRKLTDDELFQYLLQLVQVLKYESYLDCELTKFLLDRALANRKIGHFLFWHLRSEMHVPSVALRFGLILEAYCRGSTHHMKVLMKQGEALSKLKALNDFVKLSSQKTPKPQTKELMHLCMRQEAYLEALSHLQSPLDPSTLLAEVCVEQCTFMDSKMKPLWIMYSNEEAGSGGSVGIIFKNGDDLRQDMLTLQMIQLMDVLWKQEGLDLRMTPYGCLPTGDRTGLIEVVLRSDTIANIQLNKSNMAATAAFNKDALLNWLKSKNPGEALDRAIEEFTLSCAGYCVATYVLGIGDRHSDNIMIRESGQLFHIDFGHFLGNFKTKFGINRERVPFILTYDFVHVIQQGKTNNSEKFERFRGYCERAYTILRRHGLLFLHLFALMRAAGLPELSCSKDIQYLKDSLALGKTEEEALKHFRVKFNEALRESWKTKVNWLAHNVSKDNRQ
Chain of PI3Kδ (p110δ/p85α) Recombinant Human Protein (P27986 whole entry partner): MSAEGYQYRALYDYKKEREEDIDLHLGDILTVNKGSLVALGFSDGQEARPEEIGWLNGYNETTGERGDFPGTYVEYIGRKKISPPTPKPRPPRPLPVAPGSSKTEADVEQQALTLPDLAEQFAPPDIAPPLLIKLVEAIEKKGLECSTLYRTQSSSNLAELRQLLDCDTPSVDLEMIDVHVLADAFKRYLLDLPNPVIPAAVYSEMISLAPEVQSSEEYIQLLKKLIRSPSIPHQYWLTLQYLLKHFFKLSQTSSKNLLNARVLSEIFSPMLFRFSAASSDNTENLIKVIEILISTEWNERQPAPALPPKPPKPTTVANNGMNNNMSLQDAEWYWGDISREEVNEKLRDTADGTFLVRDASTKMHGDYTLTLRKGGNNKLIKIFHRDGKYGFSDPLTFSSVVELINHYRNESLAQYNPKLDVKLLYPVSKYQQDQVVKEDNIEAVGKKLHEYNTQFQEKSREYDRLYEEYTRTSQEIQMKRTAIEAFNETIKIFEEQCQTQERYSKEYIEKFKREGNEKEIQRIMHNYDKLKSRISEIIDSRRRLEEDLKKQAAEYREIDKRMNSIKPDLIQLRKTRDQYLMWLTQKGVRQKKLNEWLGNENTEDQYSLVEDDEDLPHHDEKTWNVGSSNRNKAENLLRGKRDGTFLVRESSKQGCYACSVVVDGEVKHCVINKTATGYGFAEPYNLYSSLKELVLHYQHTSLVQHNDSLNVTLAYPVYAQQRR
Excerpt: Example C. PI3Kδ Scintillation Proximity Assay
(§1) [γ-^33P]ATP (10 mCi/mL) and Wheat Germ Agglutinin (WGA) YSi SPA Scintillation Beads was purchased from Perkin-Elmer (Waltham, Mass.). Lipid kinase substrate, D-myo-Phosphatidylinositol 4,5-bisphosphate (PtdIns(4,5)P2)D (+)-sn-1,2-di-O-octanoylglyceryl, 3-O-phospho linked (PIP2), CAS 204858-53-7, was purchased from Echelon Biosciences (Salt Lake City, Utah). PI3Kδ (p110δ/p85α) Recombinant Human Protein was purchased from Eurofins (St Charles, Mo.). ATP, MgCl2, DTT, EDTA, MOPS and CHAPS were purchased from Sigma-Aldrich (St. Louis, Mo.).
(§2) The kinase reaction was conducted in polystyrene 384-well Greiner Bio-one white plate from Thermo Fisher Scientific in a final volume of 25 μL. Inhibitors were first diluted serially in DMSO and added to the plate wells before the addition of other reaction components. The final concentration of DMSO in the assay was 2%. The PI3Kδ assay was carried out at room temperature in 20 mM MOPS, pH 6.7, 10 mM MgCl2, 5 mM DTT and CHAPS 0.03%. Reactions were initiated by the addition of ATP, the final reaction mixture consisted of 20 μM PIP2, 2 μM ATP, 0.5 μCi [γ-^33P] ATP, 3.4 nM PI3Kδ. Reactions were incubated for 120 min and terminated by the addition of 40 μL SPA beads suspended in quench buffer: 163 mM potassium phosphate pH 7.8, 20% glycerol, 25 mM EDTA. The final concentration of SPA beads is 1.0 mg/mL. After the plate sealing, plates were shaken overnight at room temperature and centrifuged at 1500 rpm for 10 min, the radioactivity of the product was determined by scintillation counting on Topcount (Perkin-Elmer). IC50 determination was performed by fitting the curve of percent of the solvent control activity versus the log of the inhibitor concentration using the GraphPad Prism 6.0 software.

[2] = test system: Phosphorylated Ribosomal Protein S6 (RPS6) in THP-1 cells; assay: THP-1 RPS6 ELISA Assay; type: cell-based; conditions: Homo sapiens; serum starved THP-1 cells, 2 hours with compound, 10 nM MCP-1 for 15 minutes, Phospho-RPS6 ELISA; read-out: PI3Kγ_THP1_RPS6_ELISA IC50
Protocol: Example A. THP-1 RPS6 ELISA Assay
To measure the Phosphorylated Ribosomal Protein S6 (RPS6) in cell lysates, THP-1 cells (Human Acute Monocytic Leukemia) are purchased from ATCC (Manassas, Va.) and maintained in RPMI with 10% FBS (Gibco/Life Technologies, Carlsbad, Calif.). For the assay, THP-1 cells are serum starved overnight in RPMI, then plated in RPMI (2×10^5 cells/well in 90 μL) into 96-well flat-bottom tissue culture treated plates (Corning, Corning, N.Y.), in the presence or absence of a concentration range of test compounds. Covered plates are incubated for 2 hours at 37° C., 5% CO2 then treated with or without 10 nM MCP-1 (MYBioSource, San Diego, Calif.) for 15 minutes at 37° C., 5% CO2. Plates are centrifuged at 1600 RPM and supernatants are removed. Cells are lysed in Lysis Buffer (Cell Signaling, Danvers, Mass.) with Protease Inhibitor (Calbiochem/EMD, Germany), PMSF (Sigma, St Louis Mo.), HALTS (Thermo Fisher, Rockford, Ill.) for 30 min on wet ice. Cell lysates are frozen at −80° C. before testing. The lysates are tested in the Human/Mouse/Rat Phospho-RPS6 ELISA (R&D Systems, Inc. Minn, Minn.). The plate is measured using a microplate reader (SpectraMax M5—Molecular Devices, LLC Sunnyvale, Calif.) set to 450 nm with a wavelength correction of 540. IC50 determination is performed by fitting the curve of inhibitor percent inhibition versus the log of the inhibitor concentration using the GraphPad Prism 5.0 software.

[3] = target: PI3Kγ (p110γ) Recombinant Human Protein (Homo sapiens (Human), UniProt P48736); assay: PI3K-γ Scintillation Proximity Assay; type: biochemical; conditions: 20 μM PIP2, 2 μM ATP, 13 nM PI3Kγ, 120 min, room temperature
Chain of PI3Kγ (p110γ) Recombinant Human Protein (P48736 whole entry): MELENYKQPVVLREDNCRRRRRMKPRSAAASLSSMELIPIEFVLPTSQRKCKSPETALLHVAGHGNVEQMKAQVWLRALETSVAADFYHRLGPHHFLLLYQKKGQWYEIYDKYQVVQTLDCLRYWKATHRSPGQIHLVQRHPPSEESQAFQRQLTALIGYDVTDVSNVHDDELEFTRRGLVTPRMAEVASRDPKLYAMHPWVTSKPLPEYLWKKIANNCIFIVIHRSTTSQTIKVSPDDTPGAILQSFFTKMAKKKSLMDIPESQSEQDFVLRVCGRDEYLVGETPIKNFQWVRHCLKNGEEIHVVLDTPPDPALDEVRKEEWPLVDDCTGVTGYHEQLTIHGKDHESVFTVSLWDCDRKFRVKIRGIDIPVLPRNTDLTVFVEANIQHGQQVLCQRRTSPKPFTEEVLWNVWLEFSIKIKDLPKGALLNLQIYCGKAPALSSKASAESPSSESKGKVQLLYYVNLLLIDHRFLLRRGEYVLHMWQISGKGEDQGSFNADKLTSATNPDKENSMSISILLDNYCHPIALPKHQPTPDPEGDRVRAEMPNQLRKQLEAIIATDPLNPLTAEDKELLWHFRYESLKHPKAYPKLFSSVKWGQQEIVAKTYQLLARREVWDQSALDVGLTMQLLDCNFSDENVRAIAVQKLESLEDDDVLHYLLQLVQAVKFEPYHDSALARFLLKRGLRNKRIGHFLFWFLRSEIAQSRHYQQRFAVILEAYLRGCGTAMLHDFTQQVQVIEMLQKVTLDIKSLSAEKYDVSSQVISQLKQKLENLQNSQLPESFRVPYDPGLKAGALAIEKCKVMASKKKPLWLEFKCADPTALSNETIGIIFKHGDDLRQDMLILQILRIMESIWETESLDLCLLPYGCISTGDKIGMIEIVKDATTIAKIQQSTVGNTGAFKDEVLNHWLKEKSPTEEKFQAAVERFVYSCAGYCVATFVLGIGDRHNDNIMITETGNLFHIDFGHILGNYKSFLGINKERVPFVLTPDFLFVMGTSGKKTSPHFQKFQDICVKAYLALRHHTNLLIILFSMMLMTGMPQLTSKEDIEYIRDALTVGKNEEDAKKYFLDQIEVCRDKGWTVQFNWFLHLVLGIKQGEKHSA
Excerpt: Example B. PI3K-γ Scintillation Proximity Assay
as §1, with “PI3Kγ (p110γ)” for “PI3Kδ (p110δ/p85α)”, “Life technology (Grand island, NY),” for “Eurofins (St Charles, Mo.).”
as §2, with “PI3Kγ” for “PI3Kδ”, “13” for “3.4”, “PI3Kγ.” for “PI3Kδ.”

Row | SMILES | pIC50 [1] | pIC50 [2] | pIC50 [3]
1 | Cc1ncc(-c2nc(-c3cc(S(=O)(=O)NC45CCC(CO)(C4)C5)ccc3C)cnc2N)s1 [Example 5, 3-(5-Amino-6-(2-methylthiazol-5-yl)pyrazin-2-yl)-N-(4-(hydroxymethyl)bicyclo[2.1.1]hexan-1-yl)-4-methylbenzenesulfonamide trifluoroacetate salt] | ≥ 7.00 | ≥ 7.00 | ≥ 7.00
2 | Cc1ncc(-c2nc(-c3cc(S(=O)(=O)NC45CCC(CO)(CC4)OC5)ccc3C)cnc2N)s1 [Example 6, 3-(5-Amino-6-(2-methylthiazol-5-yl)pyrazin-2-yl)-N-(1-(hydroxymethyl)-2-oxabicyclo[2.2.2]octan-4-yl)-4-methylbenzenesulfonamide trifluoroacetate salt] | ≥ 7.00 | ≥ 7.00 | ≥ 7.00
3 | Cc1ncc(-c2nc(-c3cc(S(=O)(=O)NC45CCC(O)(CC4)C5)ccc3C)cnc2N)s1 [Example 7, 3-(5-Amino-6-(2-methylthiazol-5-yl)pyrazin-2-yl)-N-(4-hydroxybicyclo[2.2.1]heptan-1-yl)-4-methylbenzenesulfonamide trifluoroacetate salt] | ≥ 7.00 | ≥ 7.00 | ≥ 7.00
4 | Cc1ncc(-c2nc(-c3cc(S(=O)(=O)NC45COC(C(C)O)(C4)C5)ccc3C)cnc2N)s1 (stereo not drawn) [Example 8, 3-(5-Amino-6-(2-methylthiazol-5-yl)pyrazin-2-yl)-N-(1-(1-hydroxyethyl)-2-oxabicyclo[2.1.1]hexan-4-yl)-4-methylbenzenesulfonamide trifluoroacetate salt] | ≥ 7.00 | ≥ 7.00 | ≥ 7.00
5 | Cc1ncc(-c2nc(-c3cc(S(=O)(=O)NC45COC(CO)(C4)C5)cc(F)c3C)cnc2N)s1 [Example 9, 3-(5-Amino-6-(2-methylthiazol-5-yl)pyrazin-2-yl)-5-fluoro-N-(1-(hydroxymethyl)-2-oxabicyclo[2.1.1]hexan-4-yl)-4-methylbenzenesulfonamide trifluoroacetate Salt] | ≥ 7.00 | ≥ 7.00 | ≥ 7.00
6 | Cc1ccc(S(=O)(=O)NC23CC(C#N)(C2)C3)cc1-c1cnc(N)c(-c2cn(C)nc2C)n1 [Example 10, 3-(5-Amino-6-(1,3-dimethyl-1H-pyrazol-4-yl)pyrazin-2-yl)-N-(3-cyanobicyclo[1.1.1]pentan-1-yl)-4-methylbenzenesulfonamide Trifluoroacetate Salt] | ≥ 7.00 | ≥ 6.30 | ≥ 7.00
7 | Cc1ccc(S(=O)(=O)NC23CCC(C#N)(C2)C3)cc1-c1cnc(N)c(-c2cn(C)nc2C)n1 [Example 11, 3-(5-Amino-6-(1,3-dimethyl-1H-pyrazol-4-yl)pyrazin-2-yl)-N-(4-cyanobicyclo[2.1.1]hexan-1-yl)-4-methylbenzensulfonamide trifluoroacetate salt] | ≥ 6.30 | ≥ 6.30 | ≥ 7.00
8 | Cc1ccc(S(=O)(=O)NC23COC(C)(C2)C3)cc1-c1cnc(N)c(-c2cn(C)nc2C)n1 [Example 12, 3-(5-Amino-6-(1,3-dimethyl-1H-pyrazol-4-yl)pyrazin-2-yl)-4-methyl-N-(1-methyl-2-oxabicyclo[2.1.1]hexan-4-yl)benzenesulfonamide trifluoroacetate salt] | ≥ 6.30 | ≥ 6.30 | ≥ 7.00
9 | Cc1ccc(S(=O)(=O)NC23CCC(CO)(C2)C3)cc1-c1cnc(N)c(-c2cn(C)nc2C)n1 [Example 13, 3-(5-Amino-6-(1,3-dimethyl-1H-pyrazol-4-yl)pyrazin-2-yl)-N-(4-(hydroxymethyl)bicyclo[2.1.1]hexan-1-yl)-4-methylbenzenesulfonamide trifluoroacetate salt] | ≥ 6.30 | ≥ 6.30 | ≥ 7.00
10 | Cc1ccc(S(=O)(=O)NC23COC(CO)(C2)C3)cc1-c1cnc(N)c(-c2cn(C)nc2C)n1 [Example 14, 3-(5-Amino-6-(1,3-dimethyl-1H-pyrazol-4-yl)pyrazin-2-yl)-N-(1-(hydroxymethyl)-2-oxabicyclo[2.1.1]hexan-4-yl)-4-methylbenzenesulfonamide trifluoroacetate salt] | ≥ 6.30 | ≥ 6.30 | ≥ 7.00
11 | Cc1ccc(S(=O)(=O)NC23CC(CO)(C2)C3)cc1-c1cnc(N)c(-c2cn(C)nc2C)n1 [Example 15, 3-(5-amino-6-(1,3-dimethyl-1H-pyrazol-4-yl)pyrazin-2-yl)-N-(3-(hydroxymethyl)bicyclo[1.1.1]pentan-1-yl)-4-methylbenzenesulfonamide trifluoroacetate salt] | ≥ 6.30 | ≥ 6.30 | ≥ 7.00
12 | Cc1ccc(S(=O)(=O)NC23CCC(O)(CC2)C3)cc1-c1cnc(N)c(-c2cccnc2)n1 [Example 16, 3-(5-Amino-6-(pyridin-3-yl)pyrazin-2-yl)-N-(4-hydroxybicyclo[2.2.1]heptan-1-yl)-4-methylbenzenesulfonamide Trifluoroacetate Salt] | ≥ 7.00 | ≥ 6.30 | ≥ 7.00
13 | Cc1ccc(S(=O)(=O)NC23CCC(O)(CC2)C3)cc1-c1cnc(N)c(-c2ccncc2)n1 [Example 17, 3-(5-Amino-6-(pyridin-4-yl)pyrazin-2-yl)-N-(4-hydroxybicyclo[2.2.1]heptan-1-yl)-4-methylbenzenesulfonamide Trifluoroacetate Salt] | ≥ 6.30 | ≥ 6.30 | ≥ 7.00
14 | Cc1cc(-c2nc(-c3cc(S(=O)(=O)NC45CCC(CO)(CC4)OC5)ccc3C)cnc2N)ccn1 [Example 18, 3-(5-Amino-6-(2-methylpyridin-4-yl)pyrazin-2-yl)-N-(1-(hydroxymethyl)-2-oxabicyclo[2.2.2]octan-4-yl)-4-methylbenzenesulfonamide Trifluoroacetate Salt] | ≥ 6.30 | ≥ 6.30 | ≥ 7.00
